One assay addresses Mu-type opioid receptor (Homo sapiens, UniProt P35372). In words: Counterscreen for agonists of heterodimerization of the mu 1 (OPRM1) and delta 1 (OPRD1) opioid receptors: Luminescence-based cell-based high throughput dose response assay to identify agonists of OPRM1 homodimerization. It is filed as functional. (The purpose of a counterscreen is to sort out artefacts and off-target activity.)

The target in assay [1] is Delta-type opioid receptor (Homo sapiens, UniProt P41143). The experiment in a line: Counterscreen for agonists of heterodimerization of the mu 1 (OPRM1) and delta 1 (OPRD1) opioid receptors: Luminescence-based cell-based high throughput dose response assay to identify agonists of OPRD1 homodimerization. [Related pubchem assays (depositor defined):AID504326, AID504355, AID504692, AID504904, AID504905]. It is filed as functional.
Sequence of Delta-type opioid receptor (P41143 whole entry): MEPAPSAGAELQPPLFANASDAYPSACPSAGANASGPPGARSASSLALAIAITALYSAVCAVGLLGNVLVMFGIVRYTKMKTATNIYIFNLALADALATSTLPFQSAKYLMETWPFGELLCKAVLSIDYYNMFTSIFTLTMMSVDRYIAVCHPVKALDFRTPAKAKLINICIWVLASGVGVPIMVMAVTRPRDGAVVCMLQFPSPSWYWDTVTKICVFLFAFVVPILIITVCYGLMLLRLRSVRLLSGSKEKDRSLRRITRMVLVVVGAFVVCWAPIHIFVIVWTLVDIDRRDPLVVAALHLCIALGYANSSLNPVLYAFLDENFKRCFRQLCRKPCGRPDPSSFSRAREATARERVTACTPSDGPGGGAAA

Assay [2] concerns the target 5-hydroxytryptamine receptor 5A (Homo sapiens, UniProt P47898). The experiment in a line: Counterscreen for agonists of OPRM1-OPRD1 heterodimerization: luminescence-based cell-based high throughput dose response assay to identify agonists of 5-hydroxytryptamine (serotonin) 5A receptor (HTR5A). [Related pubchem assays (depositor defined):AID504326, AID504355, AID504692, AID504904, AID504905]. The format is functional.

For assay [3], the target named is Nucleotide-binding oligomerization domain-containing protein 1 (Homo sapiens, UniProt Q9Y239). The experiment in a line: blockers of NOD1 pathway activity – revised, SAR follow-up (AID 2333). The format is functional.
Sequence of Nucleotide-binding oligomerization domain-containing protein 1 (Q9Y239 whole entry, the tested form may be a part): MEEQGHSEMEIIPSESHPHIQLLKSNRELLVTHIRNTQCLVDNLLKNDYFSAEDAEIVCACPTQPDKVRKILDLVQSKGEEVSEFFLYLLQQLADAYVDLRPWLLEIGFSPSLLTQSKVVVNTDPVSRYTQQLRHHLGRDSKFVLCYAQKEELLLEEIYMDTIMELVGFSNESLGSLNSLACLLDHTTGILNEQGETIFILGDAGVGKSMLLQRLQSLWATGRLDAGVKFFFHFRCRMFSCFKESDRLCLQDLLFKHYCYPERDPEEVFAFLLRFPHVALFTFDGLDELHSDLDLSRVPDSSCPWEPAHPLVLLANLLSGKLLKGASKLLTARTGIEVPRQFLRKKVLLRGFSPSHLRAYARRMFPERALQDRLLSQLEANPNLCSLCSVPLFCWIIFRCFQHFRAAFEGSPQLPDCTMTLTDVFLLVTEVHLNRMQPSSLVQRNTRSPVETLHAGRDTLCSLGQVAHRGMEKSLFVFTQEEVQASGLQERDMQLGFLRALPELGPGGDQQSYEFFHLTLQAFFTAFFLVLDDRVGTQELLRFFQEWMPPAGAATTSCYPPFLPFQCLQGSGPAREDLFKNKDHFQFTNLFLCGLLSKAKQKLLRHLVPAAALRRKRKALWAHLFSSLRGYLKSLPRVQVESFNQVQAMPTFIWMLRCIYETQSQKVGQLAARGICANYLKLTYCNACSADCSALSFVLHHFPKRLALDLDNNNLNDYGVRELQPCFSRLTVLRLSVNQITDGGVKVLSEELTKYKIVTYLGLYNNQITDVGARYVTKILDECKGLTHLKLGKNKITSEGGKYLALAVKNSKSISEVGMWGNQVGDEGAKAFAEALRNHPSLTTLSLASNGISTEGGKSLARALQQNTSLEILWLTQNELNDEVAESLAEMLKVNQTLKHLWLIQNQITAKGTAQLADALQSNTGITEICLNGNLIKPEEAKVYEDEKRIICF
Assay [4] concerns HEK293. In words: cells. As to conditions: Homo sapiens.
Assay [5] has as its target Nucleotide-binding oligomerization domain-containing protein 2 (Homo sapiens, UniProt Q9HC29). In words: PubChem AID 2334. It is filed as functional.
In another assay the target is Tumor necrosis factor (Homo sapiens, UniProt P01375). The experiment in a line: analog potency on TNFa NF-kB signaling – cell-based, revised, SAR follow-up (AID 2337). The format is functional.
Sequence of Tumor necrosis factor (P01375 whole entry): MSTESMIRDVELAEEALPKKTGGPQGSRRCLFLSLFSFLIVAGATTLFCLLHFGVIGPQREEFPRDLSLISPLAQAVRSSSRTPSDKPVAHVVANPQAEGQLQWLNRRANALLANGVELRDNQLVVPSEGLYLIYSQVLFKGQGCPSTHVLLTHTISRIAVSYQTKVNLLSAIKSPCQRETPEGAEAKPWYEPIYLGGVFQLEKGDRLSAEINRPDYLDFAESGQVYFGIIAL
In assay [6] the target is T1, Ubiquitin-conjugating enzyme E2 N (Homo sapiens, UniProt P61088).
T1 sequence (P61088 whole entry): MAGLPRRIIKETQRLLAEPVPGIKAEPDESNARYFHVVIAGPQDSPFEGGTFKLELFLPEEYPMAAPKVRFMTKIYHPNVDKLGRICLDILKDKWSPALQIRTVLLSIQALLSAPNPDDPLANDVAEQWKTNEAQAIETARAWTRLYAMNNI
The format is functional.

For assay [7], the target named is T1, Ubiquitin-conjugating enzyme E2 N. The format is functional. The source holds these as a separate data set.
In assay [8] the target is T2, Apoptotic protease-activating factor 1 (Homo sapiens, UniProt O14727).
T2 sequence (O14727 whole entry): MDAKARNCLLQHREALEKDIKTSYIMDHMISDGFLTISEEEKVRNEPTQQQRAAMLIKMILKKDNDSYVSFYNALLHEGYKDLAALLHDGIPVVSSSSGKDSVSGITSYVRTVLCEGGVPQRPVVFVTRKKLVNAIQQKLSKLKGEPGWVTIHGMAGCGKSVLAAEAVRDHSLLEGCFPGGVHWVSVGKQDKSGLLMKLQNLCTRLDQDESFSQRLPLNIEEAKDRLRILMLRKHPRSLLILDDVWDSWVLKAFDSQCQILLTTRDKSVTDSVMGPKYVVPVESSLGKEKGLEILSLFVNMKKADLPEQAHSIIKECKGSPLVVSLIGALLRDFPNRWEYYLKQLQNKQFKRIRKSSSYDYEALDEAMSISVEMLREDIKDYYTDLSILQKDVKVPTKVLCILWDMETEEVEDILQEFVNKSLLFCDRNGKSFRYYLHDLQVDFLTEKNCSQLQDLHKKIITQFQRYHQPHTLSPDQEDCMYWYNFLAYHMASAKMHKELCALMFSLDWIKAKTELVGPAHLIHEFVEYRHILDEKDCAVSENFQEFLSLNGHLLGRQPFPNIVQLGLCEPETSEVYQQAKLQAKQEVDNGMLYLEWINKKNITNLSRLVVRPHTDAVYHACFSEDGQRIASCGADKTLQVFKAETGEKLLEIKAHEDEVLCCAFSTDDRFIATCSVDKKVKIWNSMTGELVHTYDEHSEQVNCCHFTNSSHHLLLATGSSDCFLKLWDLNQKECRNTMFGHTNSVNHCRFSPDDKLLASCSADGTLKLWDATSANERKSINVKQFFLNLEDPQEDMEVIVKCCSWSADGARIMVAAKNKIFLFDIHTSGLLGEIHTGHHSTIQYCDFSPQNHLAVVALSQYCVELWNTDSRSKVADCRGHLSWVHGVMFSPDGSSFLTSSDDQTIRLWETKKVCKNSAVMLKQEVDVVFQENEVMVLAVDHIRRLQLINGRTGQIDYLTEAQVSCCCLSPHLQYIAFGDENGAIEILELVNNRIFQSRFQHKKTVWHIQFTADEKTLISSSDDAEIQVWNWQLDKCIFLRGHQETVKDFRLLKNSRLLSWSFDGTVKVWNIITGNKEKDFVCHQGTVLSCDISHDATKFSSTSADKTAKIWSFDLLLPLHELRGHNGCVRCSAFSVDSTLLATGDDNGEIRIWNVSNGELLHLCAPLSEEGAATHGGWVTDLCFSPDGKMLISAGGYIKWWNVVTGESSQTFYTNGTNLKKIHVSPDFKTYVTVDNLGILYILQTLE
The format is functional.

The target of a further assay is T3, Bcl-2-related protein A1 (Mus musculus, UniProt Q07440).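 Further: confirmatory dose–response counterscreen on Bfl-1, used to check hits from a UBC13 polyubiquitin inhibitor campaign.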
T3 sequence (Q07440 whole entry): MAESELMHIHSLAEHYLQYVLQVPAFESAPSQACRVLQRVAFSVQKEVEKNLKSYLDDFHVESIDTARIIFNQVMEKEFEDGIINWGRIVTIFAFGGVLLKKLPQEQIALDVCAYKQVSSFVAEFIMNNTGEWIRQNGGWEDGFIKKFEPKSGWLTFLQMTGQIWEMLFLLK
It is filed as functional.

A short description of assay [9]: Luminescence Cell-Based Dose Retest to Confirm Inhibitors of Cancer Stem Cells. [Related pubchem assays (depositor defined):AID2717, AID2721]. It is filed as functional. As to conditions: Homo sapiens.
The nature of assay [10]: viability loss of HMLE_sh_eGFP cells – cell-based, luminescence, counter-screen for HMLE_sh_ECad selective toxicity project, dose response (AID 463074).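 Further: HMLE human mammary epithelial cells expressing control shRNA against eGFP.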 The format is functional, Homo sapiens.
In assay [11] the test system is HEK293. The experiment in a line: NOD2 signaling inhibitors in MDP-stimulated cells, cell-based, uHTS, luminescence (AID 2001). It is filed as functional. As to conditions: Homo sapiens.
Assay [12] addresses Photoreceptor-specific nuclear receptor (Homo sapiens, UniProt Q9Y5X4). It is filed as functional, cell-based.
The subject of assay [13] is HEK293. The experiment in a line: cells. As to conditions: Homo sapiens. The format is functional, cell-based.
For assay [14], the system named is HEK293. In words: cells. It is filed as functional, cell-based. As to conditions: Homo sapiens. The source holds these as a separate data set.
Assay [15] relates to HEK293. In words: inhibition of NOD1-driven NF-kB reporter – cell-based, luminescence, uHTS, primary screen (AID 1578). The format is functional. As to conditions: Homo sapiens.
In assay [16] the test system is Vero. In words: viability of Vero cells under compound – cytotoxicity control for flavivirus capping enzyme inhibitors (AID 588742). It is filed as functional. As to conditions: Chlorocebus sabaeus.
The target in the next assay is Genome polyprotein (dengue virus type 2, UniProt P29990). The experiment in a line: flavivirus cap methylation enzyme inhibition – biochemical, confirmation dose response, primary screen (AID 588689). The format is functional.
Sequence of Genome polyprotein (P29990 2492-3391 limits assumed): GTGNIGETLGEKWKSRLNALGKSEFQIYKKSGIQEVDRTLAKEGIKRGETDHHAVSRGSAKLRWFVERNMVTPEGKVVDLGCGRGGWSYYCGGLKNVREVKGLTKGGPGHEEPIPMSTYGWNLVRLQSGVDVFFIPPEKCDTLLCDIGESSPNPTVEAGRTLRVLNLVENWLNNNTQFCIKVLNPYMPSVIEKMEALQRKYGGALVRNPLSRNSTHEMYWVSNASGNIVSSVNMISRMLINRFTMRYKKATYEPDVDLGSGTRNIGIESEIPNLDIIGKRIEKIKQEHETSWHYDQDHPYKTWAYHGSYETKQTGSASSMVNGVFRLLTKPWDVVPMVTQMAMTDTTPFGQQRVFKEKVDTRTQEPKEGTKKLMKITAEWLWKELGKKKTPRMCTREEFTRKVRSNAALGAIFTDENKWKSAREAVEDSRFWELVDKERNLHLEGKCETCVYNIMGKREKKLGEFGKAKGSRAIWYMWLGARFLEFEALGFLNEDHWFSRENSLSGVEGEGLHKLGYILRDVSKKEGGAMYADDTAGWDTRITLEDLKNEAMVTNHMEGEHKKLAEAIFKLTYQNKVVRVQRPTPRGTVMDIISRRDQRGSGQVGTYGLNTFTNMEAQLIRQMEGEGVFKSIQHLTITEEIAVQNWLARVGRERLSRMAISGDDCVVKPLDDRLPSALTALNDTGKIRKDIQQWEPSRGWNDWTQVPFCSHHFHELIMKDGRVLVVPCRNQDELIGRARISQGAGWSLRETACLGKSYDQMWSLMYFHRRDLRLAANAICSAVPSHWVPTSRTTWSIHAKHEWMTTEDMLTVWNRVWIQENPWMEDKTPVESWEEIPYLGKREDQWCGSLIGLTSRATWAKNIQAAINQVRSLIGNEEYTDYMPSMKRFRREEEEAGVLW
Assay [17] can be described thus: HEK-293T viability loss, compound-treated – cell-based, uHTS hits, cytotoxicity control for B/T-cell NF-kB inhibitor project, dose response (AID 489019).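 Further: IC50 reflects cytotoxicity as loss of cell viability.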 The format is functional.
The subject of a further assay is Jurkat. In words: blockers of NF-kB activation in T cells – Jurkat, luciferase reporter, luminescence, B- and T-cell, dose response (AID 489004).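 Further: NF-kB luciferase reporter Jurkat cells stimulated with PMA plus ionomycin.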 The format is functional, cell-based. As to conditions: Homo sapiens.
Assay [18] relates to Vero. The experiment in a line: cells. As to conditions: Chlorocebus sabaeus. It is filed as functional, cell-based.
Assay [19] deals with T4, Microphthalmia-associated transcription factor (Homo sapiens, UniProt O75030).
T4 sequence (O75030 whole entry): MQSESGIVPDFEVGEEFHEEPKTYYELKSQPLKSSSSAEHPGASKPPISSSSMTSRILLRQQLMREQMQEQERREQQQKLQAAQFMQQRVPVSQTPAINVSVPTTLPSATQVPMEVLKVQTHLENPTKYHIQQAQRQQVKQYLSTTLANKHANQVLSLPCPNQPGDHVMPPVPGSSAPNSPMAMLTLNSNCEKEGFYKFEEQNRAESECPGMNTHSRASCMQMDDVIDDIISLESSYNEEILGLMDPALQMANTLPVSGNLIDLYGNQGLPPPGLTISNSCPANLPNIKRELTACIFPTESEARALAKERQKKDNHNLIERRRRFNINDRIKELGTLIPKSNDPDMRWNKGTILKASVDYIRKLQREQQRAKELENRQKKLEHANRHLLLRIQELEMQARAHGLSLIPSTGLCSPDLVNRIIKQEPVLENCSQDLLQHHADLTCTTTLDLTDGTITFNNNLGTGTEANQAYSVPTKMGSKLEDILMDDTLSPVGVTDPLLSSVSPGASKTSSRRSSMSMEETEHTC
The experiment in a line: reducers of TRPM1 reporter luminescence, concentration series – cell-based, SK-MEL-5, cherry-picked, set 3, MITF inhibitor project, dose response (AID 493073).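 Further: SK-MEL-5 melanoma cells with luciferase driven by the MITF target TRPM1 promoter.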 The format is functional.

The subject of another assay is H4. The experiment in a line: Luminescence Cell-Based Dose Response HTS to Identify Activators of 5'UTR Stem-Loop Driven Prion Protein mRNA Translation in H4 Neuroglioblastoma Cells. [Related pubchem assays: 1829 (Project Summary), 1814 (Primary HTS)]. As to conditions: Homo sapiens. It is filed as functional.
The test system of assay [20] is Vero. The experiment in a line: cells. The format is functional. As to conditions: Chlorocebus sabaeus.
Assay [21] is described as follows: Luminescence Cell-Based Dose Response HTS to Identify Activators of Luciferase Translation or Activity in H4 […] Cells. [Related pubchem assays: 1829 (Project Summary), 1814 (Primary HTS)]. It is filed as functional.
Assay [22] relates to HEK293. In words: cells. As to conditions: Homo sapiens. The source holds these as a separate data set.
For assay [23], the system named is HEK293. In words: cells. As to conditions: Homo sapiens. This is another data set of the same source.

Active and inactive are the calls of the source. A value given as a limit tells only on which side of the number the result lay.

Sequence of Photoreceptor-specific nuclear receptor (Q9Y5X4 whole entry): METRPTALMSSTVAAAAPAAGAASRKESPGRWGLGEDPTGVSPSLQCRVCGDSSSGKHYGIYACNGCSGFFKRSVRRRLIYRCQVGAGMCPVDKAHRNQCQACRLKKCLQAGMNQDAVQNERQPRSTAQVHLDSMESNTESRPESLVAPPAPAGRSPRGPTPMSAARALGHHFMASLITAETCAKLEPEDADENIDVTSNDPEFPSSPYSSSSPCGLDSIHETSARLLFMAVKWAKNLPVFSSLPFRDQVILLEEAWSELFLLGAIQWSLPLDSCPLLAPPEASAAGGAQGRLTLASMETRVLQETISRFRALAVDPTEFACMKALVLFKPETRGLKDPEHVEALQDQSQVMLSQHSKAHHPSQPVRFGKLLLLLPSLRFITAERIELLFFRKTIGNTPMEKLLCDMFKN
Sequence of 5-hydroxytryptamine receptor 5A (P47898 whole entry): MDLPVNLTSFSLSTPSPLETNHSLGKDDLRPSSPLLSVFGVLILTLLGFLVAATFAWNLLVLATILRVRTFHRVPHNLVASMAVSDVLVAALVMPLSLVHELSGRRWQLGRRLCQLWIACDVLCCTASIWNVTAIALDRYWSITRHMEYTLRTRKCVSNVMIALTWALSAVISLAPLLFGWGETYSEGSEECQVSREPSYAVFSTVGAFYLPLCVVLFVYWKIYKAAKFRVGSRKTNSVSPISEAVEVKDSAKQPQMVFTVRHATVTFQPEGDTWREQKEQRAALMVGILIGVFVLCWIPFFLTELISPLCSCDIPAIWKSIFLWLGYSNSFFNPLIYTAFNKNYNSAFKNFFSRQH
Sequence of Nucleotide-binding oligomerization domain-containing protein 2 (Q9HC29 whole entry, the tested form may be a part): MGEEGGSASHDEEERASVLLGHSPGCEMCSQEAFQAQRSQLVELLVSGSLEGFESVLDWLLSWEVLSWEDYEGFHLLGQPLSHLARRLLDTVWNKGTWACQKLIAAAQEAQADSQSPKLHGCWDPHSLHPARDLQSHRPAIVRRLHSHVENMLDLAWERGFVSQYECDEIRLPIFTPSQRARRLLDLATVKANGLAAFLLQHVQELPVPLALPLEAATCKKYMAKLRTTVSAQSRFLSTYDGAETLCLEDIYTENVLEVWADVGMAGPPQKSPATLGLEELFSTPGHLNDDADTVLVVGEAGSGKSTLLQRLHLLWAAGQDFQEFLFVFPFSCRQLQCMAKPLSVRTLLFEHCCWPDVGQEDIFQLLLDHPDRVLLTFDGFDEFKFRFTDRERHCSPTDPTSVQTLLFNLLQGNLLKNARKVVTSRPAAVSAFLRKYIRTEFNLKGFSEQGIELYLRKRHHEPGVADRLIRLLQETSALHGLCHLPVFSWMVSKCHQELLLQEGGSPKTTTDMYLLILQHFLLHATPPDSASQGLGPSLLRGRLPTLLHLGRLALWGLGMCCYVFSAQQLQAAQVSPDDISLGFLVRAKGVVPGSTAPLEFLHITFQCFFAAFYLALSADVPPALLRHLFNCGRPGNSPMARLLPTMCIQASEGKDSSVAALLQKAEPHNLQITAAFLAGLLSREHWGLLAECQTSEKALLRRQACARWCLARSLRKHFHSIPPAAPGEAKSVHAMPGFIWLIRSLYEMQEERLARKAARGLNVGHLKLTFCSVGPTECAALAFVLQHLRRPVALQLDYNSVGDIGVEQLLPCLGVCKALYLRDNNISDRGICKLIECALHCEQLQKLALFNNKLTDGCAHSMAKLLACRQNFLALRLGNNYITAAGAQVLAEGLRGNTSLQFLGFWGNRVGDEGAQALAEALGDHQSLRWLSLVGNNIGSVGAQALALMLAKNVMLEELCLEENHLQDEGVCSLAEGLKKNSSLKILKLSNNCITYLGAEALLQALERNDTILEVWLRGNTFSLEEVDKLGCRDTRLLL
Sequence of Mu-type opioid receptor (P35372 whole entry): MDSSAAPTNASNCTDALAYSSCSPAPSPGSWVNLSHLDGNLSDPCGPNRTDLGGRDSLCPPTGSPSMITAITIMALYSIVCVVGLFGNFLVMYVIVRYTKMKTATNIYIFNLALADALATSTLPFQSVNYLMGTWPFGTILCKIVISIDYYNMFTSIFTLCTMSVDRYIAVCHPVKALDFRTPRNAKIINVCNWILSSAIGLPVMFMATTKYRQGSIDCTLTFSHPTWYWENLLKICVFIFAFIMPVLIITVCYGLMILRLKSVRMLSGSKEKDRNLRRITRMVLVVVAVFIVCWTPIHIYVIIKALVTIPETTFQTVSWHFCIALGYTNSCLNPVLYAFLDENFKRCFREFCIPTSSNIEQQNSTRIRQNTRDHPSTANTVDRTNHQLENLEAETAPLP

Take `COc1ccc(C2CC(c3ccc(OC)cc3)n3nc(NC(=O)c4cccs4)nc3N2)cc1` (stereo not given): the EC50 (on Mu-type opioid receptor; in assay [1]; in assay [2]) was > 92.5 µM (inactive) each time.
On to `Cn1nccc1C(=O)N[C@@H]1CCCc2c1cnn2-c1ccccc1F`, for which the IC50 (in general, the concentration at which inhibition is half-maximal) is 18.7 µM (active) in [3], > 20 µM (inactive) in the assay with HEK293 [4], > 20 µM (inactive) in assay [5] and > 20 µM (inactive) at Tumor necrosis factor.
In the case of `COc1ccc(C(CNC(=O)c2ccc(S(=O)(=O)Nc3ccccc3F)cc2)N(C)C)cc1` (stereo not given), the IC50 in assay [6] is 4.54 µM (active); in [7], 6.59 µM (active); in assay [8], > 100 µM (inactive); at Bcl-2-related protein A1 it was > 20 µM (inactive).
Take `NC(=O)CC(NC(=O)Cc1cccc2ccccc12)c1ccc(NCCOc2ccccc2)c([N+](=O)[O-])c1` (stereo not given): the results for the AC50 in [9] and in assay [10] were 147 µM (active) and 22.9 µM (active), respectively.
As for `CC(C)c1ccc(-c2csc(NC(=O)c3cccs3)c2C(=O)O)cc1`, the concentration for half-maximal inhibition (IC50) with HEK293 [11] was 9.22 µM (active); in assay [12] it was 6.83 µM (active); in the assay with HEK293 [13] it was > 20 µM (inactive); in the assay on HEK293 [14] it was > 20 µM (inactive); on Genome polyprotein, 39.9 µM (active). The EC50 (usually the concentration needed to bring the measured effect to its halfway point) in the assay with HEK293 [15] was 8.7 µM (active). Also, the CC50 (usually the concentration that lowers cell viability or growth by half) with Vero [16] is > 40 µM (active).
For the molecule `O=C(Nc1nc(-c2ccc(F)c(F)c2)cs1)c1ccc(OCC2CCCO2)cc1` (stereo not given), the IC50 (in [17]; with Jurkat) was > 80 µM (inactive) throughout.
Take `N#C/C(=C\C=C\c1ccccc1[N+](=O)[O-])C(=O)NCc1ccccc1`: the IC50 in the assay on Vero [18] is > 25 µM (active). The AC50 (as a rule, the concentration at which the activity in the assay is half-maximal) in assay [19] was 14.7 µM (active). Moreover, the EC50 (in the assay with H4; in assay [21]) was > 120 µM (not active) throughout. The CC50 in the assay with Vero [20] was 15.3 µM (active).
Regarding `C=CCNc1sc(C(=O)c2ccccc2)c(N)c1-c1nc2ccccc2s1`, the EC50 in the assay with HEK293 [22] and with HEK293 [23] was > 59.7 µM (inactive) throughout.
For the molecule `CCOC(=O)c1c(-c2cccc3ccccc23)csc1NC(=O)C1C2CCC(O2)C1C(=O)O` (stereo not given), in the assay on Vero [18], the IC50 was > 25 µM (active).
`COc1ccc(/C=C/C(=O)Nc2c(C)nn(C)c2C)cc1COc1ccc(Cl)cc1Br`: the IC50 in assay [6] is 15.6 µM (active); in assay [7], 17.4 µM (active); at Bcl-2-related protein A1, 3.32 µM (active).
As for `O=C(NCCc1ccc(Cl)cc1Cl)c1cc([N+](=O)[O-])cnc1O`, the half-maximal activity concentration (AC50) is 4.14 µM (active) in assay [9] and 61.9 µM (active) in assay [10].

(Values after ChEMBL document CHEMBL1201862, “PubChem BioAssay data set” (2004).)
